Measurements reported in patent US6737383B1, “Herbicidal oxadiazolidines” (priority 1999, dated 2004).

What was measured:
[1] = test system: sugar beet; experiment: Test B pre/postemergence sugar beet; type: in vivo, Beta vulgaris
Procedure, shortened: (§1)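 Response is a visual 0-to-10 score relative to untreated plants, where 0 means no effect and 10 means complete control, taken twelve to sixteen days after application. Treatments went onto soil at planting and onto foliage of 1- to 4-leaf plants, using a surfactant-containing non-phytotoxic solvent.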

[2] = test system: wild oat; experiment: Test B pre/postemergence wild oat; type: in vivo, Avena fatua
Procedure, shortened: as §1

[3] = test system: surinam grass; experiment: Test B pre/postemergence surinam grass; type: in vivo, Brachiaria decumbens
Procedure, shortened: as §1

[4] = test system: bedstraw; experiment: Test B pre/postemergence bedstraw; type: in vivo, Galium aparine
Procedure, shortened: as §1

[5] = test system: crabgrass; experiment: Test B pre/postemergence crabgrass; type: in vivo, Digitaria sanguinalis
Procedure, shortened: as §1

[6] = test system: corn; experiment: Test B pre/postemergence corn; type: in vivo, Zea mays
Procedure, shortened: as §1

[7] = test system: velvetleaf; experiment: Test B pre/postemergence velvetleaf; type: in vivo, Abutilon theophrasti
Procedure, shortened: as §1

[8] = test system: giant foxtail; experiment: Test B pre/postemergence giant foxtail; type: in vivo, Setaria faberii
Procedure, shortened: as §1

[9] = test system: pigweed; experiment: Test B pre/postemergence pigweed; type: in vivo, Amaranthus retroflexus
Procedure, shortened: as §1

[10] = test system: purple nutsedge; experiment: Test B pre/postemergence purple nutsedge; type: in vivo, Cyperus rotundus
Procedure, shortened: as §1

[11] = test system: blackgrass; experiment: Test B pre/postemergence blackgrass; type: in vivo, Alopecurus myosuroides
Procedure, shortened: as §1

[12] = test system: soybean; experiment: Test B pre/postemergence soybean; type: in vivo, Glycine max
Procedure, shortened: as §1

[13] = test system: duck salad; experiment: Test B flood test duck salad; type: in vivo, Heteranthera limosa
Procedure, shortened: (§2)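 Each value is a visual injury score relative to controls, with 10 meaning complete control and 0 no effect. Evaluation took place twelve to sixteen days after the 2-leaf-stage plants were treated and kept in the greenhouse.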

[14] = test system: rice; experiment: Test B flood test rice; type: in vivo, Oryza sativa
Procedure, shortened: as §2

[15] = test system: cocklebur; experiment: Test B pre/postemergence cocklebur; type: in vivo, Xanthium strumarium
Procedure, shortened: as §1

[16] = test system: wheat; experiment: Test B pre/postemergence wheat; type: in vivo, Triticum aestivum
Procedure, shortened: as §1

[17] = Postemergence, Rate 62 g/ha, scale 0 to 10, 0 is no effect, 10 is complete control
[18] = Postemergence, Rate 250 g/ha, scale 0 to 10, 0 no effect, 10 complete control
[19] = Preemergence, Rate 62 g/ha, scale 0 to 10, 0 is no effect, 10 is complete control
[20] = Preemergence, Rate 125 g/ha, scale 0 to 10 (0 no effect, 10 complete control)
[21] = Preemergence, Rate 250 g/ha, scale of 0 to 10 where 0 is no effect and 10 is complete control
[22] = Preemergence, Rate 500 g/ha, scale 0 (no effect) to 10 (complete control)
[23] = Rate 125 g/ha, Postemergence, scale 0 to 10, 0 no effect, 10 complete control
[24] = Rate 500 g/ha, Postemergence, 0 to 10 scale (0 no effect, 10 complete control)
[25] = Rate 125 g/ha, Postemergence section (flood test species), scale 0 to 10, 0 no effect, 10 complete control
[26] = Rate 500 g/ha, Postemergence section of Table B, 0 to 10 scale (0 no effect, 10 complete control)
[27] = flood test, listed under Postemergence, Rate 250 g/ha, scale 0 to 10, 0 no effect, 10 complete control

## CCc1ccccc1-n1c(=O)on(C(=O)N(c2ccc(F)cc2)C(C)C)c1=O [Compound 34]
[1]; [17]
  Sugarbeets plant response rating: 0
[1]; [18]
  Sugarbeets plant response rating: 0
[1]; [19]
  Plant response rating, Sugarbeets: 0
[1]; [20]
  Plant response rating, Sugarbeets: 0
[1]; [21]
  Plant response rating, Sugarbeets: 0
[1]; [22]
  Sugarbeets plant response rating: 4
[1]; [23]
  Sugarbeets plant response rating: 0
[2]; [17]
  Wild oats plant response rating: 0
[2]; [18]
  Wild oats plant response rating: 0
[2]; [20]
  Plant response rating, Wild oats: 0
[2]; [21]
  Plant response rating, Wild oats: 2
[2]; [22]
  Wild oats plant response rating: 7
[2]; [23]
  Wild oats plant response rating: 0
[3]; [17]
  B. signalgrass plant response rating: 0
[3]; [18]
  B. signalgrass plant response rating: 0
[3]; [19]
  Plant response rating, B. signalgrass: 0
[3]; [20]
  Plant response rating, B. signalgrass: 1
[3]; [21]
  Plant response rating, B. signalgrass: 2
[3]; [22]
  B. signalgrass plant response rating: 3
[3]; [23]
  B. signalgrass plant response rating: 0
[3]; [24]
  B. signalgrass plant response rating: 0
[4]; [17]
  Bedstraw plant response rating: 4
[4]; [18]
  Bedstraw plant response rating: 6
[4]; [19]
  Plant response rating, Bedstraw: 0
[4]; [20]
  Plant response rating, Bedstraw: 0
[4]; [21]
  Plant response rating, Bedstraw: 0
[4]; [22]
  Bedstraw plant response rating: 0
[4]; [23]
  Bedstraw plant response rating: 4
[4]; [24]
  Bedstraw plant response rating: 7
[5]; [17]
  Crabgrass plant response rating: 0
[5]; [18]
  Crabgrass plant response rating: 3
[5]; [19]
  Plant response rating, Crabgrass: 7
[5]; [20]
  Plant response rating, Crabgrass: 7
[5]; [21]
  Plant response rating, Crabgrass: 10
[5]; [22]
  Crabgrass plant response rating: 10
[5]; [23]
  Crabgrass plant response rating: 0
[5]; [24]
  Crabgrass plant response rating: 9
[6]; [17]
  Corn plant response rating: 0
[6]; [18]
  Corn plant response rating: 0
[6]; [19]
  Plant response rating, Corn: 0
[6]; [20]
  Plant response rating, Corn: 0
[6]; [21]
  Plant response rating, Corn: 0
[6]; [22]
  Corn plant response rating: 0
[6]; [23]
  Corn plant response rating: 0
[6]; [24]
  Corn plant response rating: 0
[7]; [17]
  Velvetleaf plant response rating: 0
[7]; [18]
  Velvetleaf plant response rating: 2
[7]; [19]
  Plant response rating, Velvetleaf: 0
[7]; [20]
  Plant response rating, Velvetleaf: 0
[7]; [21]
  Plant response rating, Velvetleaf: 0
[7]; [22]
  Velvetleaf plant response rating: 2
[7]; [23]
  Velvetleaf plant response rating: 0
[8]; [17]
  Giant foxtail plant response rating: 0
[8]; [18]
  Giant foxtail plant response rating: 2
[8]; [19]
  Plant response rating, Giant foxtail: 2
[8]; [20]
  Plant response rating, Giant foxtail: 6
[8]; [21]
  Plant response rating, Giant foxtail: 10
[8]; [22]
  Giant foxtail plant response rating: 10
[8]; [23]
  Giant foxtail plant response rating: 0
[8]; [24]
  Giant foxtail plant response rating: 8
[9]; [17]
  Redroot pigweed plant response rating: 0
[9]; [18]
  Redroot pigweed plant response rating: 6
[9]; [19]
  Plant response rating, Redroot pigweed: 0
[9]; [20]
  Plant response rating, Redroot pigweed: 2
[9]; [21]
  Plant response rating, Redroot pigweed: 6
[9]; [22]
  Redroot pigweed plant response rating: 6
[9]; [23]
  Redroot pigweed plant response rating: 0
[9]; [24]
  Redroot pigweed plant response rating: 7
[10]; [17]
  Nutsedge plant response rating: 0
[10]; [18]
  Nutsedge plant response rating: 0
[10]; [19]
  Plant response rating, Nutsedge: 0
[10]; [20]
  Plant response rating, Nutsedge: 0
[10]; [21]
  Plant response rating, Nutsedge: 0
[10]; [22]
  Nutsedge plant response rating: 0
[10]; [23]
  Nutsedge plant response rating: 0
[10]; [24]
  Nutsedge plant response rating: 0
[11]; [17]
  Blackgrass plant response rating: 0
[11]; [18]
  Blackgrass plant response rating: 6
[11]; [19]
  Plant response rating, Blackgrass: 3
[11]; [20]
  Plant response rating, Blackgrass: 5
[11]; [21]
  Plant response rating, Blackgrass: 6
[11]; [22]
  Blackgrass plant response rating: 6
[11]; [23]
  Blackgrass plant response rating: 2
[11]; [24]
  Blackgrass plant response rating: 9
[12]; [17]
  Soybean plant response rating: 0
[12]; [18]
  Soybean plant response rating: 0
[12]; [19]
  Plant response rating, Soybean: 0
[12]; [20]
  Plant response rating, Soybean: 0
[12]; [21]
  Plant response rating, Soybean: 0
[12]; [22]
  Soybean plant response rating: 0
[12]; [23]
  Soybean plant response rating: 0
[13]; [17]
  Ducksalad plant response rating: 0
[13]; [25]
  Ducksalad plant response rating: 0
[13]; [26]
  Ducksalad plant response rating: 0
[13]; [27]
  Ducksalad plant response rating: 0
[14]; [17]
  Rice plant response rating: 0
[14]; [25]
  Rice plant response rating: 0
[14]; [26]
  Rice plant response rating: 0
[14]; [27]
  Rice plant response rating: 0
[15]; [17]
  Cocklebur plant response rating: 0
[15]; [18]
  Cocklebur plant response rating: 0
[15]; [19]
  Plant response rating, Cocklebur: 0
[15]; [20]
  Plant response rating, Cocklebur: 0
[15]; [21]
  Plant response rating, Cocklebur: 0
[15]; [22]
  Cocklebur plant response rating: 0
[15]; [23]
  Cocklebur plant response rating: 0
[15]; [24]
  Cocklebur plant response rating: 4
[16]; [17]
  Wheat plant response rating: 0
[16]; [18]
  Wheat plant response rating: 0
[16]; [19]
  Plant response rating, Wheat: 0
[16]; [20]
  Plant response rating, Wheat: 0
[16]; [21]
  Plant response rating, Wheat: 0
[16]; [22]
  Wheat plant response rating: 2
[16]; [23]
  Wheat plant response rating: 0
